From patent US20220041613A1, “TYROSINE KINASE INHIBITOR COMPOSITIONS, METHODS OF MAKING AND METHODS OF USE” (Black Diamond Therapeutics, Inc., priority 2018, published 2022)
Entries after “also recorded” stand apart in the source; their conditions may differ. Read-outs that look alike come from different tables or passages of the source.

Columns and labels:
[1] = test system: covalently-activated EGFR variants (EGFR-Viii, EGFR-Vii, EGFR-Vvi, EGFR-A289V); experiment: Western blot under non-reducing conditions: monomeric versus covalently dimerized and phosphorylated EGFR; type: cell-based, Homo sapiens
GBM = details: cited from earlier work; for clinical benefit in GBM: >30 clinical trials and >1500 patients
[2] = test system: BaF3 cells expressing EGFR-Viii, EGFR-Vii or EGFR-A289V; experiment: Proliferation of BaF3 cells expressing covalently-activated EGFR; type: cell-based, murine
EGFR V3 (EGFR-Viii) = target: T1, EGFR V3 (EGFR-Viii) (Homo sapiens, UniProt P00533, DELINS30-297G); experiment: Assay for cell proliferation (BaF3 transformants, CellTiterGlo), Activity for Inhibiting EGFR; type: cell-based; details: potency code, 3 days drug
T1 construct: expressed in transfected cells; host or cells: BaF3 (murine pro-B), retroviral pMXs-IRES-Blasticidin, selected for IL-3 independence
Procedure: (§1) Retroviral Production: EGFR mutants were subcloned into pMXs-IRES-Blasticidin (RTV-016, Cell Biolabs, San Diego, Calif.). Retroviral expression vector retrovirus was produced by transient transfection of HEK 293T cells with the retroviral EGFR mutant expression vector pMXs-IRES-Blasticidin (RTV-016, Cell Biolabs), pCMV-Gag-Pol vector and pCMV-VSV-G-Envelope vector. HEK 293T/17 cells were plated in 100 mm collagen coated plate (354450, Corning Life Sciences, Tewksbury, Mass.) (4×10^5 per plate) and incubated overnight. The next day, retroviral plasmids (3 μg of EGFR mutant, 1.0 μg of pCMV-Gag-Pol and 0.5 μg pCMV-VSV-G) were mixed in 500 μl of Optimem (31985, Life Technologies). The mixture was incubated at room temperature for 5 min and then added to Optimem containing transfection reagent Lipofectamine (11668, Invitrogen) and incubated for 20 minutes. Mixture was then added dropwise to HEK 293T cells. The next day the medium was replaced with fresh culture medium and retrovirus was harvested @ 24 and 48 hrs. Generation of EGFR mutant stable cell lines: BaF3 cells (1.5E5 cells) were infected with 1 ml of viral supernatant supplemented with 8 μg/ml polybrene by centrifuging for 30 min at 1000 rpm. Cells were placed in a 37° C. incubator overnight. Cells were then spun for 5 minutes to pellet the cells. Supernatant was removed and cells re-infected a fresh 1 ml of viral supernatant supplemented with 8 μg/ml polybrene by centrifuging for 30 min at 1000 rpm. Cells were placed in 37° C. incubator overnight. […] After 48 hours cells were selected for retroviral infection in 10 μg/ml Blasticidin for one week. Blasticidin resistant populations were washed twice in phosphate buffered saline before plating in media lacking IL-3 to select for IL-3 independent growth.
as §1, with “fresh 1 m1 of viral” for “fresh 1 ml of viral”

EGFR WT = target: T2, EGFR WT (Homo sapiens, UniProt P00533); experiment: Assay for cell proliferation (CellTiterGlo), Activity for Inhibiting EGFR; type: cell-based; details: potency code, 3 days drug
T2 construct: endogenous in cells; host or cells: A431 (+H292)

HER2 WT = target: T3, HER2 WT (Homo sapiens, UniProt P04626); experiment: Assay for cell proliferation (CellTiterGlo), Activity for Inhibiting HER2; type: cell-based
T3 construct: endogenous in cells; host or cells: BT474

HER2 S310F = target: T4, HER2 S310F (Homo sapiens, UniProt P04626, S310F); experiment: Assay for cell proliferation (BaF3 transformants, CellTiterGlo), Activity for Inhibiting HER2; type: cell-based; details: potency code, 3 days drug
T4 construct: expressed in transfected cells; host or cells: BaF3 (murine pro-B) transformants

HER2 YVMA = target: T5, HER2 YVMA (Homo sapiens, UniProt P04626, INS775YVMA); experiment: as above; type: cell-based; details: potency code, 3 days drug
T5 construct: expressed in transfected cells; host or cells: BaF3 (murine pro-B) transformants

EGFR SVD = target: T6, EGFR SVD (Homo sapiens, UniProt P00533, INS770SVD); experiment: Assay for cell proliferation (BaF3 transformants, CellTiterGlo), Activity for Inhibiting EGFR; type: cell-based; details: potency code, 3 days drug
T6 construct: expressed in transfected cells; host or cells: BaF3 (murine pro-B), retroviral pMXs-IRES-Blasticidin, selected for IL-3 independence
Procedure: as §1
as §1, with “fresh 1 m1 of viral” for “fresh 1 ml of viral”

EGFR NPH = target: T7, EGFR NPH (Homo sapiens, UniProt P00533, INS773NPH); experiment: as above; type: cell-based; details: potency code, 3 days drug
T7 construct: expressed in transfected cells; host or cells: BaF3 (murine pro-B), retroviral pMXs-IRES-Blasticidin, selected for IL-3 independence
Procedure: as §1
as §1, with “fresh 1 m1 of viral” for “fresh 1 ml of viral”

[3] = covalent dimers of covalently-activated EGFR variants, cells expressing EGFR-Vii and EGFR-A289V (FIG. 8)
[4] = phase 2 study, erlotinib in combination with radiation and temozolomide
[5] = sub-saturating concentrations, up to 72 hours
[6] = Table B (Example 2), potency code, 3 days drug, read-out: HER2 WT
[7] = Table B, potency code, 3 days drug, read-out: HER2 WT
[8] = 'about ... or less', read-out: IC50 value for inhibiting wild-type HER2

T6 sequence (P00533 with tags, fused parts or gaps INS770SVD): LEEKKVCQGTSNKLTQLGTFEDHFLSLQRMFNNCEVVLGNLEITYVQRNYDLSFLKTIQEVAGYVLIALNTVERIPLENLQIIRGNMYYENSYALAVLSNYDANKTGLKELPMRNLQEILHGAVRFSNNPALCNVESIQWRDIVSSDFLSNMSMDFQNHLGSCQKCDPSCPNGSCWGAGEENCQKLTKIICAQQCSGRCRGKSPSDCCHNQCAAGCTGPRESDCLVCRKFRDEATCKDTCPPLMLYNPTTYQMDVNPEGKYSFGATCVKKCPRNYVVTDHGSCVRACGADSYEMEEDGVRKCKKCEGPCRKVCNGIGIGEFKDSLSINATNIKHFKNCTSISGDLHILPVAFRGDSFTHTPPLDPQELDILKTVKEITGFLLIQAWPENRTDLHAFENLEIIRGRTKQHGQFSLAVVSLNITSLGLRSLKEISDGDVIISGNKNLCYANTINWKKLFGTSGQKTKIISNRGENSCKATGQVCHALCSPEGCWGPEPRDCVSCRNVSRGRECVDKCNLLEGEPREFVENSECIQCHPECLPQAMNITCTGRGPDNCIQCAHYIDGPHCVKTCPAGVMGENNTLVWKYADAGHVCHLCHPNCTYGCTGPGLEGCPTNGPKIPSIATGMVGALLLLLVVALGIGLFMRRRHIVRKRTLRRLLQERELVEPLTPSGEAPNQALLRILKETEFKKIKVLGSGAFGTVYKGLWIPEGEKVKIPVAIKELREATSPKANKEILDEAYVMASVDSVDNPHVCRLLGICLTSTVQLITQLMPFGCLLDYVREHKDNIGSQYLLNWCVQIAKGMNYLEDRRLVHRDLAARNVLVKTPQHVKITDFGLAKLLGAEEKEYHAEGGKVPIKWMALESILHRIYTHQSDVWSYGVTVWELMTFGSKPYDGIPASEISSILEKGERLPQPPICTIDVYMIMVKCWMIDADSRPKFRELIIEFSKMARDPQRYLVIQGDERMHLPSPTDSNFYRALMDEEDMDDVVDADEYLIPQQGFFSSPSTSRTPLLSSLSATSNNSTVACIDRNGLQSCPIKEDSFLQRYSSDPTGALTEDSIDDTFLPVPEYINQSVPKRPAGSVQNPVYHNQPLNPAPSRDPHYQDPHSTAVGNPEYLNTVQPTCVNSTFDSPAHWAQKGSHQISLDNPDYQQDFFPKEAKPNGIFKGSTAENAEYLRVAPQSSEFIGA
T3 sequence (P04626 23-1255): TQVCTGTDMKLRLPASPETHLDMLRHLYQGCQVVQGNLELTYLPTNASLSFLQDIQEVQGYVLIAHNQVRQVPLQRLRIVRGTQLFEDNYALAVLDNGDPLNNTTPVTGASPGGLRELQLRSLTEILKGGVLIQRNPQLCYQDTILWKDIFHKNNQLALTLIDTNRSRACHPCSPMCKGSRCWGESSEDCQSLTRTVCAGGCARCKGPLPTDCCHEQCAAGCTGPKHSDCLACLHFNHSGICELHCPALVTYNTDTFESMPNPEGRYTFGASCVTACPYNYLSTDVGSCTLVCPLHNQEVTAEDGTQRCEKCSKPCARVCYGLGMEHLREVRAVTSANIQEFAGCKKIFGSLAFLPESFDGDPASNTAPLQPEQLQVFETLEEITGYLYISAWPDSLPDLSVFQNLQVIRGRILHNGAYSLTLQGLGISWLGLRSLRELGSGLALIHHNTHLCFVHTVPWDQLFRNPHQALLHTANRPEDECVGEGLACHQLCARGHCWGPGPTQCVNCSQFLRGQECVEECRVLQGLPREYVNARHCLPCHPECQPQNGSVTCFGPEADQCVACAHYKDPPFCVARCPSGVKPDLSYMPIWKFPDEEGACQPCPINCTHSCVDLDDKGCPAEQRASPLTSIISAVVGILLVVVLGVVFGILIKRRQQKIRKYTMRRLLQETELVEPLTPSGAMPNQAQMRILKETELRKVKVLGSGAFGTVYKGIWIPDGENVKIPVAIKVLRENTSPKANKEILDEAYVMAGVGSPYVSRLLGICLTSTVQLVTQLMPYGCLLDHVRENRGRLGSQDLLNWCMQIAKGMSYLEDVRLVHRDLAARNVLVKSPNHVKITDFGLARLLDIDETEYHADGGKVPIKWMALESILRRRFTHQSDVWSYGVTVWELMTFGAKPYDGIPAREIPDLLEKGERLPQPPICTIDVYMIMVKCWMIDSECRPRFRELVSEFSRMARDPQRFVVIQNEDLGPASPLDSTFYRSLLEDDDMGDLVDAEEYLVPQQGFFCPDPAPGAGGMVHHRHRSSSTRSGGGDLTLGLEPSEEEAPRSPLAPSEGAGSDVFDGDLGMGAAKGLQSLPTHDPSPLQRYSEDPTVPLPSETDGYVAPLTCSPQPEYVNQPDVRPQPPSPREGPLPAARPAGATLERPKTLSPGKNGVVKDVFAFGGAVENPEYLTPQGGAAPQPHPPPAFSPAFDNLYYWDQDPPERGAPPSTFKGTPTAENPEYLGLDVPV
T5 sequence (P04626 with tags, fused parts or gaps INS775YVMA): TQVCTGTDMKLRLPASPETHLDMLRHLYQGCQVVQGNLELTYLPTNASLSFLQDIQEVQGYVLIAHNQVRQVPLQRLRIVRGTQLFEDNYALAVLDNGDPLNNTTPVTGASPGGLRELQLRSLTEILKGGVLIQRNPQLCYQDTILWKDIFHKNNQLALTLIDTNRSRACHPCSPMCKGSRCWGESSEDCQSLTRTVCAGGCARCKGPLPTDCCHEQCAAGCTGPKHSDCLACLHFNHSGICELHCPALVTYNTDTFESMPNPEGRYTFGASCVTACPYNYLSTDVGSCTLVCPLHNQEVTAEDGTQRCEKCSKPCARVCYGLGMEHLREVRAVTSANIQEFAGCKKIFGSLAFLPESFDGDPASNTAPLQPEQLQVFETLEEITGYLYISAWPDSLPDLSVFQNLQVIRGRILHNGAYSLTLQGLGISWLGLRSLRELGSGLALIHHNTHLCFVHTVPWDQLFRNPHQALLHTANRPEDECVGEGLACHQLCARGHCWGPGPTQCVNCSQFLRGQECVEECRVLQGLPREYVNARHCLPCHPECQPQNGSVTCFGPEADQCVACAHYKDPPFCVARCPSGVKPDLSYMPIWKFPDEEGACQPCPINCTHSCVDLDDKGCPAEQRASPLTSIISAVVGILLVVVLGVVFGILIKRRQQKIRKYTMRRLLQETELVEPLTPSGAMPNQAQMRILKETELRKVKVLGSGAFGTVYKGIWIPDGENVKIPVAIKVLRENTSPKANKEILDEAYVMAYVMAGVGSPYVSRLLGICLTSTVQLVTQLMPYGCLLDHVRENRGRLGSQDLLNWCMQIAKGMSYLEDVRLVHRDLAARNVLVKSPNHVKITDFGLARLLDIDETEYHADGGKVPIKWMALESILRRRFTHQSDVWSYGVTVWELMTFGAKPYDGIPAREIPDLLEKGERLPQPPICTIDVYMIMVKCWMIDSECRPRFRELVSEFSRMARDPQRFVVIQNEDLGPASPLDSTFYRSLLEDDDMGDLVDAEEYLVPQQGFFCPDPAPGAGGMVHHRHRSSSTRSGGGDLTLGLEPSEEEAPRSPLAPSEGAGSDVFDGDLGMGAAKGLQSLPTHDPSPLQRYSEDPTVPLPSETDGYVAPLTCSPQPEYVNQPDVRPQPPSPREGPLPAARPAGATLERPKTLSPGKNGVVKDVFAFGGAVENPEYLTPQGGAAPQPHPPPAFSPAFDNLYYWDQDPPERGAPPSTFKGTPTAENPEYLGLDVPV
T7 sequence (P00533 with tags, fused parts or gaps INS773NPH): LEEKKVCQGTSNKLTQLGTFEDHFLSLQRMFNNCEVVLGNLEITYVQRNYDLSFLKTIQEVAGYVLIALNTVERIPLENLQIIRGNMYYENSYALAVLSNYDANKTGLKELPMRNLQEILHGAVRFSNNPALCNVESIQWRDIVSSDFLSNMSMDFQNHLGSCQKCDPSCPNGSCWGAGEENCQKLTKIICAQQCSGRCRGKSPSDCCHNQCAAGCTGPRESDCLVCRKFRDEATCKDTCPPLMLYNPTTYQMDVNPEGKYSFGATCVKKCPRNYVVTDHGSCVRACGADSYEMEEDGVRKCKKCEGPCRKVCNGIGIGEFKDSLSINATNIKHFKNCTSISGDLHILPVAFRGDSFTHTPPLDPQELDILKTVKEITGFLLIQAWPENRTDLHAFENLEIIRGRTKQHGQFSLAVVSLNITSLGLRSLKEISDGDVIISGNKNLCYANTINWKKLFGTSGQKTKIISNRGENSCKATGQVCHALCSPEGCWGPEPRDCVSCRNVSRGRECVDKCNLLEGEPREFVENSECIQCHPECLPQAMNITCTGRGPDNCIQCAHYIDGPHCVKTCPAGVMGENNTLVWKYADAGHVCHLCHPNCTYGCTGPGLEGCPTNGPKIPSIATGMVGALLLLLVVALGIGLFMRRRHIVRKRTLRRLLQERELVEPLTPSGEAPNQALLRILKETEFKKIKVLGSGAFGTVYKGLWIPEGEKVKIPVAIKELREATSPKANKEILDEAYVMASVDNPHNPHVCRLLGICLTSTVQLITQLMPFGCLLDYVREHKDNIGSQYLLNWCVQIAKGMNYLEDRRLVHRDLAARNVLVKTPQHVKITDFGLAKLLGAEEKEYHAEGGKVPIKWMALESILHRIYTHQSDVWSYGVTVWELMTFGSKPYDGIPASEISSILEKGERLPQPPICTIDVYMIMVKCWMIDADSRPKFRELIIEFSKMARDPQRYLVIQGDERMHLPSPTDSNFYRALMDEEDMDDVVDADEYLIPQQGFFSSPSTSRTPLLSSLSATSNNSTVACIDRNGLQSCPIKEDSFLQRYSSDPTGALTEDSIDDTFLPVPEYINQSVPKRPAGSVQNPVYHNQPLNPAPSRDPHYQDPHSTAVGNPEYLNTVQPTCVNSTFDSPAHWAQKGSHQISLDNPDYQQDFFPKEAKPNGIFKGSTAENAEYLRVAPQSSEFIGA

SMILES	IC50 (EGFR V3 (EGFR-Viii); Table A (Example 2)) [nM]	IC50 (EGFR V3 (EGFR-Viii); Table A) [nM]	IC50 (EGFR WT; Table A (Example 2)) [nM]	IC50 (EGFR WT; Table A) [nM]	IC50 (HER2 WT; [6]) [nM]	IC50 (HER2 WT; [7]) [nM]	IC50 (HER2 S310F; Table B (Example 2)) [nM]	IC50 (HER2 S310F; Table B) [nM]	IC50 (HER2 WT; [8]) [nM]	also measured
C=CC(=O)Nc1ccc2ncnc(Nc3ccc(OCc4cccc(F)c4)c(Cl)c3)c2c1 [AST-1306]	–	–	–	–	–	–	–	–	–	Induced dimers [1, 3]: No
C=CC(=O)Nc1cccc(Nc2nc(Nc3ccc(N4CCN(C(C)=O)CC4)cc3OC)ncc2C(F)(F)F)c1 [CO-1686]	–	–	–	–	–	–	–	–	–	Induced dimers [1]: Yes
COc1cc2ncnc(Nc3ccc(F)c(Cl)c3)c2cc1NC(=O)/C=C/CN1CCCCC1 [Dacomitinib, dacomitinib]	–	–	–	–	–	–	–	–	–	Induced dimers [1, 3]: Yes
C#Cc1cccc(Nc2ncnc3cc(OCCOC)c(OCCOC)cc23)c1 [Erlotinib, erlotinib]	–	–	–	–	–	–	–	–	–	clinical benefit in GBM (GBM): failed to produce any benefit; median OS (mOS) (GBM; [4]): 8.6 months; median PFS (mPFS) (GBM; [4]): 2.8 months
COc1cc2ncnc(Nc3ccc(F)c(Cl)c3)c2cc1OCCCN1CCOCC1 [Gefitinib, gefinitinib]	–	–	–	–	–	–	–	–	–	clinical benefit in GBM (GBM): failed to produce any benefit
CCOc1cc2ncc(C#N)c(Nc3ccc(OCc4cccc(F)c4)c(Cl)c3)c2cc1NC(=O)/C=C/CN(C)C [HKI-357]	–	–	–	–	–	–	–	–	–	Induced dimers [1, 3]: No
CN(C)C/C=C/C(=O)Nc1cc2c(Nc3ccc(F)c(Cl)c3)ncnc2cc1C#CC1[C@H]2COC[C@@H]12 (stereo partly shown) [NT-113]	–	–	–	–	–	–	–	–	–	proliferation of cells expressing covalently-activated EGFR (paradoxical activation) [2, 5]: no evidence for increased cellular proliferation; formation of covalent EGFR dimers ([1]; cells expressing covalently-activated EGFR variants, non-reducing conditions): induces dimerization
CCOc1cc2ncc(C#N)c(Nc3ccc(OCc4ccccn4)c(Cl)c3)c2cc1NC(=O)/C=C/CN(C)C [Neratinib, neratinib]	–	–	–	–	–	–	–	–	–	proliferation of cells expressing covalently-activated EGFR (paradoxical activation) [2]: devoid of paradoxical activation
CCOc1cc2ncc(C#N)c(Nc3ccc(F)c(Cl)c3)c2cc1NC(=O)/C=C/CN(C)C [Pelitinib, pelitinib]	–	–	–	–	–	–	–	–	–	Induced dimers [1]: Yes
C=CC(=O)Nc1cccc(Oc2nc(Nc3ccc(N4CCN(C)CC4)cc3)ncc2Cl)c1 [WZ3146]	–	–	–	–	–	–	–	–	–	proliferation of cells expressing covalently-activated EGFR (paradoxical activation) [2, 5]: biphasic effect on proliferation; also recorded: paradoxical stimulation of proliferation; Induced dimers [1, 3]: Yes
C=CC(=O)Nc1cccc(Oc2nc(Nc3ccc(N4CCN(C)CC4)cc3OC)ncc2Cl)c1 [WZ4002]	–	–	–	–	–	–	–	–	–	proliferation of cells expressing covalently-activated EGFR (paradoxical activation) [2, 5]: biphasic effect on proliferation; also recorded: paradoxical stimulation of proliferation; Induced dimers [1]: Yes
C=CC(=O)Nc1cccc(Sc2nc(Nc3ccc(N4CCN(C)CC4)cc3)ncc2Cl)c1 [WZ8040]	–	–	–	–	–	–	–	–	–	proliferation of cells expressing covalently-activated EGFR (paradoxical activation) [2, 5]: biphasic effect on proliferation; also recorded: paradoxical stimulation of proliferation; Induced dimers [1, 3]: Yes
C=CC(=O)Nc1cc2c(Nc3ccc4c(cnn4Cc4cccc(F)c4)c3)ncnc2cc1N(C)CCN(C)C [compound 1]	50 to 100	50 to 100	500 to 1000	500 to 1000	20 to 30	20 to 30	100 to 200	100 to 200	–	–
C=CC(=O)Nc1cc2c(Nc3ccc4c(cnn4Cc4cccc(F)c4)c3)ncnc2cc1N(C)CCN1CCOCC1 [compound 2]	30 to 50	30 to 50	> 1000	> 1000	20 to 30	20 to 30	100 to 200	100 to 200	–	–
C=CC(=O)Nc1cc2c(Nc3ccc4c(cnn4Cc4cccc(F)c4)c3)ncnc2cc1N(C)CCCN1CCOCC1 [compound 4]	30 to 50	30 to 50	500 to 1000	500 to 1000	10 to 20	10 to 20	100 to 200	100 to 200	≤ 20	–
C=CC(=O)Nc1cc2c(Nc3ccc4c(cnn4Cc4cccc(F)c4)c3)ncnc2cc1NCCN1CCOCC1 [compound 5]	100 to 200	100 to 200	200 to 300	200 to 300	5 to 10	5 to 10	100 to 200	100 to 200	≤ 10	–
C=CC(=O)Nc1cc2c(Nc3ccc4c(cnn4Cc4cccc(F)c4)c3)ncnc2cc1OCCCN1CC2CC1CO2 (stereo not shown) [compound 6]	30 to 50	30 to 50	100 to 200	100 to 200	< 5	< 5	10 to 20	10 to 20	≤ 6	–
C=CC(=O)Nc1cc2c(Nc3ccc4c(cnn4Cc4cccc(F)c4)c3)ncnc2cc1N(C)CCCN1CC2CC1CO2 (stereo not shown) [compound 7]	100 to 200	100 to 200	300 to 500	300 to 500	10 to 20	10 to 20	100 to 200	100 to 200	≤ 20	–
C=CC(=O)Nc1cc2c(Nc3ccc4c(cnn4Cc4cccc(F)c4)c3)ncnc2cc1OCCN1CCCCC1 [compound 8]	20 to 30	20 to 30	100 to 200	100 to 200	5 to 10	5 to 10	10 to 20	10 to 20	≤ 10	IC50 (HER2 YVMA; Table B (Example 2)): 100 to 200 nM; IC50 (HER2 YVMA; Table B): 100 to 200 nM; IC50 (EGFR SVD; Table A (Example 2)): 30 to 50 nM; IC50 (EGFR SVD; Table A): 30 to 50 nM; IC50 (EGFR NPH; Table A (Example 2)): 30 to 50 nM; IC50 (EGFR NPH; Table A): 30 to 50 nM
C=CC(=O)Nc1cc2c(Nc3ccc4c(cnn4Cc4cccc(F)c4)c3)ncnc2cc1C#CC(C)(C)N1CCN(C)CC1 [compound 9]	30 to 50	30 to 50	300 to 500	300 to 500	5 to 10	5 to 10	10 to 20	10 to 20	≤ 10	IC50 (HER2 YVMA; Table B (Example 2)): 50 to 100 nM; IC50 (HER2 YVMA; Table B): 50 to 100 nM; IC50 (EGFR SVD; Table A (Example 2)): 30 to 50 nM; IC50 (EGFR SVD; Table A): 30 to 50 nM; IC50 (EGFR NPH; Table A (Example 2)): 30 to 50 nM; IC50 (EGFR NPH; Table A): 30 to 50 nM
C=CC(=O)Nc1cc2c(Nc3ccc4c(cnn4Cc4cccc(F)c4)c3)ncnc2cc1OCCN(C)C [compound 10]	20 to 30	20 to 30	100 to 200	100 to 200	< 5	< 5	20 to 30	20 to 30	≤ 6	IC50 (HER2 YVMA; Table B (Example 2)): 50 to 100 nM; IC50 (HER2 YVMA; Table B): 50 to 100 nM; IC50 (EGFR SVD; Table A (Example 2)): 30 to 50 nM; IC50 (EGFR SVD; Table A): 30 to 50 nM; IC50 (EGFR NPH; Table A (Example 2)): 30 to 50 nM; IC50 (EGFR NPH; Table A): 30 to 50 nM
